Measurements: patent publication US20080234288A1, “Hcv Inhibiting Sulfonamides” (priority 2003, published 2008)
pEC50: −log10 of the molar value. Where a name gives a salt, the structure may show the parent alone.

The compounds below were run on HCV replicon (NS3-NS5B regions of HCV type 1b) in Huh-7 luc/neo cells (assay: HCV replicon assay, stable replicon cell reporter assay (Huh-Luc, luciferase)). Details: Hepatitis C virus, Huh-7, 72 h, incubation of three days, luciferase activity.
Type: cell-based
Description: The compounds of the present invention were examined for activity in the inhibition of HCV RNA replication in a cellular assay. […] The cellular assay was based on a bicistronic expression construct, as described by Lohmann et al. (1999) Science vol. 285 pp. 110-113 with modifications described by Krieger et al. (2001) Journal of Virology 75: 4614-4624, in a multi-target screening strategy. In essence, the method is as follows.
The assay utilized the stably transfected cell line Huh-7 luc/neo (hereafter referred to as Huh-Luc; kindly provided by Dr Ralf Bartenschlager, Reblikon GmBh, Germany). This cell line harbors an RNA encoding a bicistronic expression construct comprising the wild type NS3-NS5B regions of HCV type 1b translated from an Internal Ribosome Entry Site (IRES) from encephalomyocarditis virus (EMCV), preceded by a reporter portion (FfL-luciferase), and a selectable marker portion (neo^R, neomycine phosphotransferase). The construct was bordered by 5′ and 3′ NTRs (non-translated regions) from HCV type 1b. Continued culture of the replicon cells in the presence of G418 (neo^R) is dependent on the replication of the HCV RNA. The stably transfected replicon cells that express HCV RNA, which replicates autonomously and to high levels, encoding inter alia luciferase, were used for screening the antiviral compounds.
The replicon cells were plated in 384 well plates in the presence of the test and control compounds which were added in various concentrations. Following an incubation of three days, HCV replication was measured by assaying luciferase activity (using standard luciferase assay substrates and reagents and a Perkin Elmer ViewLux™ ultraHTS microplate imager). Replicon cells in the control cultures have high luciferase expression in the absence of any inhibitor. The inhibitory activity of the compound on luciferase activity was monitored on the Huh-Luc cells, enabling a dose-response curve for each test compound. EC50 values were then calculated, which value represents the amount of the compound required to decrease by 50% the level of detected luciferase activity, or more specifically, the ability of the genetically linked HCV replicon RNA to replicate (Table 1).

| Compound | pEC50 |
| --- | --- |
| CCOC(=O)Nc1nc2ccc(S(=O)(=O)N(CC(C)C)CC(O)C(Cc3ccccc3)NC(=O)OCc3cncs3)cc2o1 (stereo not drawn) [Compound 2, (6-{[2-Hydroxy-4-phenyl-3-(thiazol-5-ylmethoxycarbonyl-amino)-butyl]-isobutyl-sulfamoyl}-benzooxazol-2-yl)-carbamic acid ethyl ester] | 4.49 to 5.00 |
| CC(C)CN(CC(O)C(Cc1ccccc1)NC(=O)OCc1cncs1)S(=O)(=O)c1ccc2nc(NC(=O)CN(C)CCN3CCCC3)oc2c1 (stereo not drawn) [Compound 32, {1-Benzyl-2-hydroxy-3-[isobutyl-(2-{2-[methyl-(2-pyrrolidin-1-yl-ethyl)-amino]-acetylamino}-benzooxazole-6-sulfonyl)-amino]-propyl}-carbamic acid thiazol-5-ylmethyl ester] | 4.49 to 5.00 |
| CC(C)CN(CC(O)C(Cc1ccccc1)NC(=O)OCc1cncs1)S(=O)(=O)c1ccc2nc(NC(=O)c3cccnc3)oc2c1 (stereo not drawn) [Compound 4, [1-Benzyl-2-hydroxy-3-(isobutyl-{2-[(pyridine-3-carbonyl)-amino]-benzooxazole-6-sulfonyl}-amino)-propyl]-carbamic acid thiazol-5-ylmethyl ester] | 5.00 to 5.70 |
| CC(C)CN(CC(O)C(Cc1ccccc1)NC(=O)OCc1cncs1)S(=O)(=O)c1ccc2nc(NC(=O)CN(C)C)oc2c1 (stereo not drawn) [Compound 29, (1-Benzyl-3-{[2-(2-dimethylamino-acetylamino)-benzo-oxazole-6-sulfonyl]-isobutyl-amino}-2-hydroxy-propyl)-carbamic acid thiazol-5-ylmethyl ester] | 5.00 to 5.70 |
| CC(C)CN(CC(O)C(Cc1ccccc1)NC(=O)OCc1cncs1)S(=O)(=O)c1ccc2nc(N(C)C(=O)C3CCCN(C)C3)oc2c1 (stereo not drawn) [Compound 37, [1-Benzyl-2-hydroxy-3-(isobutyl-{2-[methyl-(1-methyl-piperidine-3-carbonyl)-amino]-benzooxazole-6-sulfonyl}-amino)-propyl]-carbamic acid thiazol-5-ylmethyl ester] | 4.49 to 5.00 |
| CC(C)CN(CC(O)C(Cc1ccccc1)NC(=O)OCc1cncs1)S(=O)(=O)c1ccc2nc(NC(=O)c3ccncc3)oc2c1 (stereo not drawn) [Compound 35, [1-Benzyl-2-hydroxy-3-(isobutyl-{2-[(pyridine-4-carbonyl)-amino]-benzooxazole-6-sulfonyl}-amino)-propyl]-carbamic acid thiazol-5-ylmethyl ester] | > 5.70 |
| CC(C)CN(CC(O)C(Cc1ccccc1)NC(=O)OCc1cncs1)S(=O)(=O)c1ccc2nc(N(C)C)oc2c1 (stereo not drawn) [Compound 33, {1-Benzyl-3-[(2-dimethylamino-benzooxazole-6-sulfonyl)-isobutyl-amino]-2-hydroxy-propyl}-carbamic acid thiazol-5-ylmethyl ester] | 4.49 to 5.00 |
| CC(C)CN(CC(O)C(Cc1ccccc1)NC(=O)OCc1cncs1)S(=O)(=O)c1ccc2nc(N(C)C(=O)C3CCCN3C)oc2c1 (stereo not drawn) [Compound 40, [1-Benzyl-2-hydroxy-3-(isobutyl-{2-[methyl-(1-methyl-pyrrolidine-2-carbonyl)-amino]-benzooxazole-6-sulfonyl}-amino)-propyl]-carbamic acid thiazol-5-ylmethyl ester trifluoroacetate salt] | 4.49 to 5.00 |
| CC(C)CN(CC(O)C(Cc1ccccc1)NC(=O)OCc1cncs1)S(=O)(=O)c1ccc2nc(N(C)C(=O)c3ccncc3)oc2c1 (stereo not drawn) [Compound 9, [1-Benzyl-2-hydroxy-3-(isobutyl-{2-[methyl-(pyridine-4-carbonyl)-amino]-benzooxazole-6-sulfonyl}-amino)-propyl]-carbamic acid thiazol-5-ylmethyl ester] | 4.49 to 5.00 |
| CC(C)CN(CC(O)C(Cc1ccccc1)NC(=O)OCc1cncs1)S(=O)(=O)c1ccc2nc(NC(=O)C3CCCN3C)oc2c1 (stereo not drawn) [Compound 11, [1-Benzyl-2-hydroxy-3-(isobutyl-{2-[(1-methyl-pyrrolidine-2-carbonyl)-amino]-benzooxazole-6-sulfonyl}-amino)-propyl]-carbamic acid thiazol-5-ylmethyl ester] | 5.00 to 5.70 |
| CC(=O)Nc1nc2ccc(S(=O)(=O)N(CC(C)C)CC(O)C(Cc3ccccc3)NC(=O)OCc3cncs3)cc2o1 (stereo not drawn) [Compound 1, {3-[(2-Acetylamino-benzooxazole-6-sulfonyl)-isobutyl-amino]-1-benzyl-2-hydroxy-propyl}-carbamic acid thiazol-5-ylmethyl ester] | 5.00 to 5.70 |
| CC(C)CN(CC(O)C(Cc1ccccc1)NC(=O)OCc1cnc(Cl)s1)S(=O)(=O)c1ccc2nc(N)oc2c1 (stereo not drawn) [Compound 28, {3-[(2-Amino-benzooxazole-6-sulfonyl)-isobutyl-amino]-1-benzyl-2-hydroxy-propyl}-carbamic acid 2-chloro-thiazol-5-ylmethyl ester] | 5.00 to 5.70 |
| CC(C)CN(CC(O)C(Cc1ccccc1)NC(=O)OCc1cncs1)S(=O)(=O)c1ccc2nc(NCCN(C)C)sc2c1 (stereo not drawn) [Compound 14, (1-Benzyl-3-{[2-(2-dimethylamino-ethylamino)-benzo-thiazole-6-sulfonyl]-isobutyl-amino}-2-hydroxy-propyl)-carbamic acid thiazol-5-ylmethyl ester] | 5.00 to 5.70 |
| CC(C)CN(CC(O)C(Cc1ccccc1)NC(=O)OCc1cncs1)S(=O)(=O)c1ccc2nc(N3CCCCC3)oc2c1 (stereo not drawn) [Compound 31, {1-Benzyl-2-hydroxy-3-[isobutyl-(2-piperidin-1-yl-benzo-oxazole-6-sulfonyl)-amino]-propyl}-carbamic acid thiazol-5-ylmethyl ester] | 5.00 to 5.70 |
| CC(C)CN(CC(O)C(Cc1ccccc1)NC(=O)OCc1cncs1)S(=O)(=O)c1ccc2nc(NC(=O)c3ccccn3)oc2c1 (stereo not drawn) [Compound 27, [1-Benzyl-2-hydroxy-3-(isobutyl-{2-[(pyridine-2-carbonyl)-amino]-benzooxazole-6-sulfonyl}-amino)-propyl]-carbamic acid thiazol-5-ylmethyl ester] | 5.00 to 5.70 |
| CC(C)CN(CC(O)C(Cc1ccccc1)NC(=O)OCc1cncs1)S(=O)(=O)c1ccc2nc(N)oc2c1 (stereo not drawn) [Compound 45, {3-[(2-Amino-benzooxazole-6-sulfonyl)-isobutyl-amino]-1-benzyl-2-hydroxy-propyl}-carbamic acid thiazol-5-ylmethyl ester] | 5.00 to 5.70 |
| CC(C)CN(CC(O)C(Cc1ccccc1)NC(=O)OCc1cncs1)S(=O)(=O)c1ccc2nc(NCCN3CCNCC3)sc2c1 (stereo not drawn) [Compound 18, (1-Benzyl-2-hydroxy-3-{isobutyl-[2-(2-piperazin-1-yl-ethyl-amino)-benzothiazole-6-sulfonyl]-amino}-propyl)-carbamic acid thiazol-5-ylmethyl ester] | 5.00 to 5.70 |
| CC(=O)N(C)c1nc2ccc(S(=O)(=O)N(CC(C)C)CC(O)C(Cc3ccccc3)NC(=O)OCc3cncs3)cc2s1 (stereo not drawn) [Compound 21, (3-{[2-(Acetyl-methyl-amino)-benzothiazole-6-sulfonyl]-isobutyl-amino}-1-benzyl-2-hydroxy-propyl)-carbamic acid thiazol-5-ylmethyl ester] | 4.49 to 5.00 |

Same assay, conditions: incubation of three days, luciferase activity

| Compound | pEC50 |
| --- | --- |
| CC(C)CN(CC(O)C(Cc1ccccc1)NC(=O)OCc1cncs1)S(=O)(=O)c1ccc2nc(N)oc2c1 (stereo not drawn) [Compound 19, {3-[(2-Amino-benzooxazole-6-sulfonyl)-isobutyl-amino]-1-benzyl-2-hydroxy-propyl}-carbamic acid thiazol-5-ylmethyl ester] | 5.00 to 5.70 |
| CC(C)CN(CC(O)C(Cc1ccccc1)NC(=O)OCc1cncs1)S(=O)(=O)c1ccc2nc(NC(=O)C3CCC(=O)N3)oc2c1 (stereo not drawn) [Compound 24, [1-Benzyl-2-hydroxy-3-(isobutyl-{2-[(5-oxo-pyrrolidine-2-carbonyl)-amino]-benzooxazole-6-sulfonyl}-amino)-propyl]-carbamic acid thiazol-5-yl methyl ester] | 5.00 to 5.70 |
| CC(C)CN(CC(O)C(Cc1ccccc1)NC(=O)OCc1cncs1)S(=O)(=O)c1ccc2nc(NC(=O)C3CCC(=O)N3)oc2c1 (stereo not drawn) [Compound 23, [1-Benzyl-2-hydroxy-3-(isobutyl-{2-[(5-oxo-pyrrolidine-2-carbonyl)-amino]-benzooxazole-6-sulfonyl}-amino)-propyl]-carbamic acid thiazol-5-yl methyl ester] | 4.49 to 5.00 |
